The subject of test [1] is middle cerebral artery ischemia model of rat. Kind of test: Infarction inhibiting action in middle cerebral artery ischemia (MCAo-recirculation) model of rat. Format: in vivo. The note with it: ip, 24 h, 3 mg/kg i.p. 10 minutes before occlusion and 1 hour after recirculation, infarction volume one day after, vs control group, read-out: Rate of inhibition of infarction. From the text: It is also known that, in this way, in the acute stage of cerebral infarction, the lesion proceeds to the peripheral tissue from the core of infarction, and death of the nerve cells is extended with the passage of several days. This possible not only extends and creates grave aftereffects, and causes loss of motor and mental function, but also finally critically influences on the life. As an in vivo experimental model of cerebral infarction which is capable of precisely evaluating the clinical effect of a medicine in conformity with clinical conditions of the disease of a patient of cerebral infarction, the middle cerebral artery occlusion (MCAo)-recirculation model comprising an embolus with a yarn using Wister rates may be used [Document: Japan Journal of Stroke, vol. 8, 1 (1986)]. […] This action was evaluated by applying the MCAo model by the method which will be described below.
In rats of 10 weeks old, after etherization, a median incision of the cervical region was made up to the right carotid artery bifurcation under 1.0% halothane anesthetization with care to preserve the vagus nerves. The common carotid artery and the external carotid artery were separated from the periphery connective tissue with the right carotid artery bifurcation as the center, and each of the arteries was ligated by a 6-0 silk yarn (Eto yarn). Further, a yarn was wound on the internal carotid artery origin in preparation for ligation and fixing after insertion of the embolus. Next, the common carotid artery was incised, and the embolus was inserted from the common carotid artery to the internal carotid artery by about 15 to 16 mm, and ligated and fixed to the internal carotid artery by the silk yarn at the end thereof near the nylon yarn. In this operation, the end of the embolus was inserted into the anterior cerebral artery by about 1 to 2 mm beyond the middle cerebral artery bifurcation, and the inlet of the middle cerebral artery was occluded by the body (resin part) of the embolus for 1 hours. In recirculation, the embolus with a yarn was removed to recirculate the blood flow to the middle cerebral artery. 3 mg/kg of each of test compounds was intraperitoneally administered 10 minutes before occlusion and 1 hour after recirculation of the blood flow. One day after occlusion and recirculation, the whole body was perfused with physiologic saline through the heart, and the brain was extracted. The extracted brain was cooled with ice and water for 5 minutes, and cut at intervals of 2.0 mm to form 7 sections of the cerebral coronal surface. Each of the sections was stained with TTC (Triphenyltetrazolium Chloride), and fixed by a 5% neutral buffer formalin solution. In each of the sections, the infarction area in the right cerebral hemisphere was measured by an image analyzer (Olympus), and the infarction was evaluated by volume (mm^3). The infarction volume was compared with the infarction volume of a control group to calculate the rate of inhibition of infarction.

A further test relates to cultured nerve cells. Kind of test: Action of protecting cultured nerve cells from glutamic acid toxicity (LDH leakage). Type of test: cell-based, Wistar rat. The note with it: rat fetal cerebral cortex cells, 10 mM glutamic acid, 24 hours, read-out: ED50 (the source's name). From the text: It is known that when the blood flow to the brain is temporarily clogged due to cerebral ischemia, hypoxia, or an trauma, delayed cerebral neuronal death is induced [Document: Brain Research, Vol. 239, 57 (1982)]. A possible cause of such damage of the cerebral nerve cells is excitatory toxicity due to an excitatory neutotransmitter such as glutamic acid or the like, which is excessively released with ischemia [Document: Trends in Neuroscience, vol. 10, 299 (1987)]. […] This is a problem to be solved by the invention. This action was evaluated by using the in vitro evaluation system which will be described below.
A fetus was taken from the abdomen of a Wistar female rat on the 18 to 19th day of pregnancy under aseptic conditions, and the head of the fetus was opened to extract the brain. The brain was placed in an ice-cooled L-15 medium, and the cerebral cortex was separated under a microscope. The cerebral cortexes of about 30 rats were cut into pieces, and then suspended in 10 ml of a 0.25% trypsin solution and 0.2 ml of a 0.01% DNase solution, followed by culture at 37° C. for 30 minutes. Then, 2 ml of serum was added to the solution, and immediately the resultant mixture was centrifuged at 120 rpm for 2 minutes to separate the precipitates. To the precipitates was added 7 ml of a DF medium (a medium obtained by adding 20 nM of transferrin, 5 μg/ml of insulin, 20 nM of progesterone,60 nM of selenite, 50 U/ml of penicillin, and 50 U/ml of streptomycin to a mixture equivalent amounts of Dulbecco modified Eagle medium and F-12 medium), followed by 20 pipetting operations using a 10-ml plastic pipette to obtain a cell suspension. The cell suspension was filtered with nylon mesh (pore diameter 43 μm) to fractionate isolated cells. The thus-obtained isolated cells were diluted with a DF medium to a concentration of 6.0×10^5 cells/ml, and 500 μl of the diluted cells was inoculated in each of the 48 wells of a 48-well culture plate precoated with polylysine, followed by culture at 37° C. for 1 day in the presence of 5% of CO2. On the 2nd day, the medium was changed to a new DF medium, and 10 μl of a solution of 0.5M glutamic acid in distilled water was added to each of the wells (the final glutamic acid concentration was 10 mM), followed by further culture at 37° C. for 24 hours in the presence 5% of CO2. A test compound was dissolved in distilled water, 10% or 100% DMSO or 10% methanol, and 5 μl of the solution was added to each of the wells immediately before glutamic acid was added. As an index of nerve cell damage, the enzyme activity of lactic acid dehydrogenase (LDH) leaking from the damaged cells into the medium was measured. For each of the test compounds, the LDH leakage was measured at each of concentrations to determine a dose-response curve by the modified Cochran-Armitige method. The 50% effective dose (ED50) of each of the test compounds we determined from the curve.

Regarding `Oc1ccc2c3c1O[C@H]1c4[nH]c5c(ccc6ccccc65)c4C[C@@]4(O)[C@@H](C2)N(CC2CC2)CC[C@]314` [Compound 2, 17-cyclopropylmethyl-3,14β-dihydroxy-6,7-dehydro-4,5α-epoxy-6,7,2',3'-(6',7'-benzoindolo)morphinan], in test [1], the inhibition in vivo at 3 mg/kg amounted to 72%. For the same compound, the EC50 in the test with cultured nerve cells was found to be 0.033 µM. In the case of `Oc1ccc2c3c1O[C@H]1c4[nH]c5c(cc6c7c(cccc75)CC6)c4C[C@@]4(O)[C@@H](C2)N(CC2CC2)CC[C@]314` [Compound 3, 17-cyclopropylmethyl-3,14β-dihydroxy-6,7-dehydro-4,5α-epoxy-6,7,2',3'-(5',6"-ethano-6',7'-benzoindolo)morphinan], the inhibition in vivo at 3 mg/kg in test [1] is 54%. Moreover, the EC50 with cultured nerve cells turned out to be 0.053 µM. Regarding `Oc1ccc2c3c1O[C@H]1c4[nH]c5cc(C6CCCCC6)ccc5c4C[C@@]4(O)[C@@H](C2)N(CC2CC2)CC[C@]314` [Compound 5, 17-cyclopropylmethyl-3,14β-dihydroxy-6,7-dehydro-4,5α-epoxy-6,7,2',3'-(6'-cyclohexylindolo)morphinan], the inhibition in vivo at 3 mg/kg in test [1] worked out at 31%. In the test on cultured nerve cells, the EC50 was 0.12 µM. In the same order, the values of `CCCCCCCc1cccc2[nH]c3c(c12)C[C@@]1(O)[C@H]2Cc4ccc(O)c5c4[C@@]1(CCN2CC1CC1)[C@H]3O5` [Compound 6, 17-cyclopropylmethyl-3,14β-dihydroxy-6,7-dehydro-4,5α-epoxy-6,7,2',3'-(4'-heptylindolo)morphinan] are 33% and 0.4 µM.

On to `Oc1ccc2c3c1O[C@H]1c4[nH]c5ccc6ccccc6c5c4C[C@@]4(O)[C@@H](C2)N(CC2CC2)CC[C@]314` [Compound 8, 17-cyclopropylmethyl-3,14β-dihydroxy-6,7-dehydro-4,5α-epoxy-6,7,2',3'-(4',5'-benzoindolo)morphinan], for which, in test [1], the inhibition in vivo at 3 mg/kg turned out to be 49%. Moreover, the EC50 in the test on cultured nerve cells was 0.2 µM. Turning to `Oc1ccc2c3c1O[C@H]1c4[nH]c5c(cc(Br)c6ccccc65)c4C[C@@]4(O)[C@@H](C2)N(CC2CC2)CC[C@]314` [Compound 9, 17-cyclopropylmethyl-3,14β-dihydroxy-6,7-dehydro-4,5α-epoxy-6,7,2',3'-(5'-bromo-6',7'-benzoindolo)morphinan], in test [1], the inhibition in vivo at 3 mg/kg was 9%. The EC50 in the test with cultured nerve cells was determined as 0.11 µM. As for `Oc1ccc2c3c1O[C@H]1c4[nH]c5c(ccc6cccc(Cl)c65)c4C[C@@]4(O)[C@@H](C2)N(CC2CC2)CC[C@]314` [Compound 12, 17-cyclopropylmethyl-3,14β-dihydroxy-6,7-dehydro-4,5α-epoxy-6,7,2',3'-(3"-chloro-6',7'-benzoindolo)morphinan], the inhibition in vivo at 3 mg/kg in test [1] came to 67%. In the test with cultured nerve cells, the EC50 is 0.035 µM. In the same order, the values of `Oc1ccc2c3c1O[C@H]1c4[nH]c5c(cc(F)c6ccccc65)c4C[C@@]4(O)[C@@H](C2)N(CC2CC2)CC[C@]314` [Compound 14, 17-cyclopropylmethyl-3,14β-dihydroxy-6,7-dehydro-4,5α-epoxy-6,7,2',3'-(5'-fluoro-6',7'-benzoindolo)morphinan] are 29% and 0.086 µM. For the compound `COc1ccc2c3c1O[C@H]1c4[nH]c5c(ccc6ccccc65)c4C[C@@]4(O)[C@@H](C2)N(CC2CC2)CC[C@]314` [Compound 17, 17-cyclopropylmethyl-3-methoxy-14β-hydroxy-6,7-dehydro-4,5α-epoxy-6,7,2',3'-(6',7'-benzoindolo)morphinan], in test [1], the inhibition in vivo at 3 mg/kg was determined as 56%. The EC50 with cultured nerve cells is 0.12 µM.

Regarding `O[C@@]12Cc3c([nH]c4c3ccc3ccccc34)[C@@H]3Oc4cccc5c4[C@@]31CCN(CC1CC1)[C@@H]2C5` [Compound 18, 17-cyclopropylmethyl-14β-hydroxy-6,7-dehydro-4,5α-epoxy-6,7,2',3'-(6',7'-benzoindolo)morphinan], the inhibition in vivo at 3 mg/kg in test [1] was 23%. In the test on cultured nerve cells, the EC50 amounted to 0.9 µM. As to `Oc1ccc2c3c1O[C@H]1c4[nH]c5c6ccccc6c6ccccc6c5c4C[C@@]4(O)[C@@H](C2)N(CC2CC2)CC[C@]314` [Compound 23, 17-cyclopropylmethyl-3,14β-dihydroxy-6,7-dehydro-4,5α-epoxy-6,7,2',3'-(4',5',6',7'-debenzoindolo)morphinan], the inhibition in vivo at 3 mg/kg in test [1] was 79%. The same measure, in the same setting: in the case of `O=C(CCCCCc1ccccc1)NCCCn1c2c(c3ccccc31)C[C@@]1(O)[C@H]3Cc4ccc(O)c5c4[C@@]1(CCN3CC1CC1)[C@H]2O5` [Compound 62, 17-cyclopropylmethyl-3,14β-dihydroxy-6,7-dehydro-4,5α-epoxy-6,7,2',3'-[1'-[3-(6-phenylhexanoamido)propyl]indolo]morphinan] it was 10%. For `Oc1ccc2c3c1O[C@H]1c4[nH]c5c(ccc6ccccc65)c4C[C@@]4(O)[C@@H](C2)NCC[C@]314` [Compound 73, 3, 14β-dihydroxy-6,7-dehydro-4,5α-epoxy-6,7,2',3'-(6',7'-benzoindolo)morphinan], the inhibition in vivo at 3 mg/kg in test [1] was 34%. On the same count and under the same terms, in the case of `CN1CC[C@]23c4c5ccc(O)c4O[C@H]2c2[nH]c4c(ccc6ccccc64)c2C[C@@]3(O)[C@H]1C5` [Compound 74, 17-methyl-3,14β-dihydroxy-6,7-dehydro-4,5α-epoxy-6,7,2',3'-(6',7'-benzoindolo)morphinan] it was 27%.

For the compound `Oc1ccc2c3c1O[C@H]1c4[nH]c5c(ccc6ccccc65)c4C[C@@]4(O)[C@@H](C2)N(CCc2ccccc2)CC[C@]314` [Compound 75, 17-(2-phenylethyl)-3,14β-dihydroxy-6,7-dehydro-4,5α-epoxy-6,7,2',3'-(6',7'-benzoindolo)morphinan], the inhibition in vivo at 3 mg/kg in test [1] amounted to 30%. The same measure, in the same setting: in the case of `Oc1ccc2c3c1O[C@H]1c4[nH]c5c(ccc6ccccc65)c4C[C@@]4(O)[C@@H](C2)N(CC2CCC2)CC[C@]314` [Compound 76, 17-cyclobutylmethyl-3,14β-dihydroxy-6,7-dehydro-4,5α-epoxy-6,7,2',3'-(6',7'-benzoindolo)morphinan] it was 65%; in that of `CS(=O)(=O)n1c2c(c3ccc4ccccc4c31)C[C@@]1(O)[C@H]3Cc4ccc(O)c5c4[C@@]1(CCN3CC1CC1)[C@H]2O5` [Compound 78, 17-cyclopropylmethyl-3,14β-dihydroxy-6,7-dehydro-4,5α-epoxy-6,7,2',3'-(1'-methylsulfonyl 6',7'-benzoindolo)morphinan], 55%.

Source of the values: US6156762A, “Indolomorphinan derivative and agent for curing and preventing cerebral disorder” (Toray Industries, Inc., priority 1997, dated 2000).
